# Positions of bridges follow the written chain, without caps; N, C: chain ends. Residues, ends and D or L forms follow the SMILES beside them. No end group written: not given here.
# Legend:
# [1] = tested on: E. coli 25922; test: MIC, modified microtiter dilution; format: cell-based, Escherichia coli; conditions: MHB, 2–7 × 10^5 CFU/ml, 37°C, 24 h, lowest concentration with no turbidity, at least three independent repeats
# Text: (§1) The experiment was repeated at least three times independently.
# [2] = tested on: E. coli UB1005; test: MIC, modified microtiter dilution; format: cell-based, Escherichia coli; conditions: MHB, 2–7 × 10^5 CFU/ml, 37°C, 24 h, no turbidity, at least three independent repeats
# Text: as §1
# [3] = tested on: E. coli K88; conditions: MHB, 2–7 × 10^5 CFU/ml, 37°C, 24 h, no turbidity, at least three independent repeats
# Text: (§2) The bacterial strains Escherichia coli (E. coli) ATCC 25922, E. coli K88, E. coli K99, Pseudomonas aeruginosa (P. aeruginosa) ATCC 27853, Escherichia coli (E. coli) UB1005, Salmonella typhimurium 14028, Salmonella pullorum (S. pullorum) C7913, S. typhimurium C7731, S. aureus ATCC 29213, MRSA ATCC 43300, and S. aureus ATCC 25923 were obtained from the College of Veterinary Medicine, Northeast Agricultural University, China. Lactobacillus plantarum (L. plantarum) 8014, Lactobacillus rhamnosus (L. rhamnosus) 7469, L. rhamnosus 1.0911, L. rhamnosus 1.0936, and L. rhamnosus 1.0385 were obtained from the Key Laboratory of Food College, Northeast Agricultural University, China.
# (§3) As in a previous study, the antimicrobial activities of the AMPs were investigated using a modified standard microtiter dilution method ([Dong et al., 2014]). The peptides were serially diluted with a solution containing 0.01% acetic acid and 0.2% bovine serum albumin (BSA, Sigma) in 96-well plates. The bacteria grew to the mid-log phase and then were dissolved in MHB at concentration of 2–7 × 10^5 CFU/ml. The peptides and bacterial solution were mixed in equal volume in a 37°C incubator for 24 h. […] Mueller-Hinton broth with microorganisms was used as the positive control, and the pure broth was used as the negative control. The experiment was repeated at least three times independently.
# [4] = tested on: E. coli K99; conditions: MHB, 2–7 × 10^5 CFU/ml, 37°C, 24 h, no turbidity, at least three independent repeats
# Text: as §2, §3
# [5] = tested on: S. typhimurium 14028; test: MIC, modified microtiter dilution; format: cell-based, Salmonella typhimurium; conditions: MHB, 2–7 × 10^5 CFU/ml, 37°C, 24 h, no turbidity, at least three independent repeats
# Text: as §1
# [6] = tested on: S. typhimurium 7731; test: MIC, modified microtiter dilution; format: cell-based, Salmonella typhimurium; conditions: MHB, 2–7 × 10^5 CFU/ml, 37°C, 24 h, no turbidity, at least three independent repeats
# Text: as §1
# [7] = tested on: S. pullorum 7913; test: MIC, modified microtiter dilution; format: cell-based, Salmonella pullorum; conditions: MHB, 2–7 × 10^5 CFU/ml, 37°C, 24 h, no turbidity, at least three independent repeats
# Text: as §1
# [8] = tested on: P. aeruginosa 27853; test: MIC, modified microtiter dilution; format: cell-based, Pseudomonas aeruginosa; conditions: MHB, 2–7 × 10^5 CFU/ml, 37°C, 24 h, no turbidity, at least three independent repeats
# Text: as §1
# [9] = tested on: S. aureus 25923; test: MIC, modified microtiter dilution; format: cell-based, Staphylococcus aureus; conditions: MHB, 2–7 × 10^5 CFU/ml, 37°C, 24 h, no turbidity, at least three independent repeats
# Text: as §1
# [10] = tested on: S. aureus 29213; test: MIC, modified microtiter dilution; format: cell-based, Staphylococcus aureus; conditions: MHB, 2–7 × 10^5 CFU/ml, 37°C, 24 h, no turbidity, at least three independent repeats
# Text: as §1
# [11] = tested on: MRSA 43300; format: cell-based, Staphylococcus aureus; conditions: MHB, 2–7 × 10^5 CFU/ml, 37°C, 24 h, no turbidity, at least three independent repeats
# Text: as §1
# [12] = tested on: L. plantarum 8014; test: MIC, modified microtiter dilution; format: cell-based, Lactobacillus plantarum; conditions: 2–7 × 10^5 CFU/ml, 37°C, 24 h, no turbidity, at least three independent repeats
# Text: as §1
# [13] = tested on: L. rhamnosus 1.0385; test: MIC, modified microtiter dilution; format: cell-based, Lactobacillus rhamnosus; conditions: 2–7 × 10^5 CFU/ml, 37°C, 24 h, no turbidity, at least three independent repeats
# Text: as §1
# [14] = tested on: L. rhamnosus 1.0911; test: MIC, modified microtiter dilution; format: cell-based, Lactobacillus rhamnosus; conditions: 2–7 × 10^5 CFU/ml, 37°C, 24 h, no turbidity, at least three independent repeats
# Text: as §1
# [15] = tested on: L. rhamnosus 1.0936; test: MIC, modified microtiter dilution; format: cell-based, Lactobacillus rhamnosus; conditions: 2–7 × 10^5 CFU/ml, 37°C, 24 h, no turbidity, at least three independent repeats
# Text: as §1
# [16] = tested on: L. rhamnosus 7469; test: MIC, modified microtiter dilution; format: cell-based, Lactobacillus rhamnosus; conditions: 2–7 × 10^5 CFU/ml, 37°C, 24 h, no turbidity, at least three independent repeats
# Text: as §1
# [17] = tested on: S. aureus 29213; test: MIC in the presence of physiological salts; format: cell-based, Staphylococcus aureus; conditions: three independent repeats; for MIC against S. aureus 29213, FeCl3: 4 μM FeCl3; for MIC against S. aureus 29213, FeCl3 / MIC against S. aureus 29213, NH4Cl / MIC against S. aureus 29213, ZnCl2 / MIC against S. aureus 29213, MgCl2 / MIC against S. aureus 29213, CaCl2 / MIC against S. aureus 29213, KCl / MIC against S. aureus 29213, NaCl: unit not given in Table 4; for MIC against S. aureus 29213, NH4Cl: 6 μM NH4Cl; for MIC against S. aureus 29213, ZnCl2: 8 μM ZnCl2; for MIC against S. aureus 29213, MgCl2: 1 mM MgCl2; for MIC against S. aureus 29213, CaCl2: 2 mM CaCl2; for MIC against S. aureus 29213, KCl: 4.5 mM KCl; for MIC against S. aureus 29213, NaCl: 150 mM NaCl
# Experimental: as §1
# The MIC of peptides was determined in the presence of salts at physiological concentrations (150 mM NaCl, 4.5 mM KCl, 6 μM NH4Cl, 8 μM ZnCl2, 1 mM MgCl2, 2 mM CaCl2, and 4 μM FeCl3) as described previously ([Dong et al., 2014]). All experiments were performed three times independently.
# [18] = tested on: RAW 264.7 cells; test: Cytotoxicity, MTT dye reduction assay; format: cell-based, murine; conditions: highest concentration of 128 μM, 4 h, three independent repeats
# Experimental: The cytotoxicity of peptides was determined by healthy human erythrocytes and the murine macrophage cell line RAW 264.7 via a hemolysis assay and MTT dye reduction assay, respectively ([Wang et al., 2018]). In the hemolysis assay, fresh hRBCs from healthy people were centrifuged for 5 min at 1,000 × g and then washed three times with PBS (pH = 7.2). The 100 μL erythrocyte suspension and peptides were incubated for 1.5 h in an incubator at 37°C. The 96-well plates were centrifuged at 1,000 × g for 5 min, and the supernatants were carefully aspirated. The absorbance at 570 nm indicated the leakage of hemoglobin. The hRBCs in the PBS sample was used as the negative control, and 0.1% Triton X-100 addition served as the positive control. In the MTT dye reduction assay, 1.0–2.0 × 10^5 cells were plated in 96-well plates and then treated with various concentrations of peptides for 4 h at 37°C in a 5% CO2 incubator. Subsequently, 50 μL of MTT was added to the plated cells at a final concentration of 0.5 mg/mL and incubated for 4 h. Then, the cells were centrifuged at 1000 × g for 5 min, and the supernatants were discarded. Formazan crystals were dissolved in 150 μL of DMSO, and the OD570 nm was measured using a microplate reader (TECAN GENios F129004; TECAN, Austria). The experiment was repeated three times independently.
# [19] = tested on: panel of bacterial species; test: MIC against a panel of bacterial species (summary statements); format: cell-based; conditions: for antimicrobial activity against the tested microorganisms: all tested bacteria, up to the highest concentration measured
# Text: as §1
Compound,MIC E. coli 25922 [1] [µM],MIC E. coli UB1005 [2] [µM],MIC E. coli K88 [3] [µM],MIC E. coli K99 [4] [µM],MIC S. typhimurium 14028 [5] [µM],MIC S. typhimurium 7731 [6] [µM],MIC S. pullorum 7913 [7] [µM],MIC P. aeruginosa 27853 [8] [µM],MIC S. aureus 25923 [9] [µM],MIC S. aureus 29213 [10] [µM],MIC MRSA 43300 [11] [µM],MIC L. plantarum 8014 [12] [µM],MIC L. rhamnosus 1.0385 [13] [µM],MIC L. rhamnosus 1.0911 [14] [µM],MIC L. rhamnosus 1.0936 [15] [µM],MIC L. rhamnosus 7469 [16] [µM],"MIC against S. aureus 29213, FeCl3 [17] [µM]","MIC against S. aureus 29213, NH4Cl [17] [µM]","MIC against S. aureus 29213, ZnCl2 [17] [µM]","MIC against S. aureus 29213, MgCl2 [17] [µM]",also measured
RWWWAA-NH2 [Peptide S8],>64,>64,>64,>64,>64,>64,>64,>64,>64,>64,>64,>64,>64,>64,>64,>64,>64,>64,64,>64,"MIC against S. aureus 29213, CaCl2 [17]: >64 µM; MIC against S. aureus 29213, KCl [17]: >64 µM; MIC against S. aureus 29213, NaCl [17]: >64 µM; RAW 264.7 cell survival rate [18]: 85%"
CC(C)C[C@H](NC(=O)[C@H](CC(C)C)NC(=O)[C@H](Cc1c[nH]c2ccccc12)NC(=O)[C@H](Cc1c[nH]c2ccccc12)NC(=O)[C@H](Cc1c[nH]c2ccccc12)NC(=O)[C@H](CCCNC(=N)N)NC(=O)[C@H](CS)NC(=O)[C@H](Cc1ccccc1)NC(=O)[C@H](Cc1ccc(O)cc1)NC(=O)[C@H](CO)NC(=O)[C@H](C)NC(=O)[C@@H](N)CS)C(N)=O [Peptide S4] (H-CASYFCRWWWLL-NH2; N-terminus assumed),>64,>64,>64,>64,>64,>64,>64,>64,>64,>64,>64,>64,>64,>64,>64,>64,>64,>64,>64,>64,"MIC against S. aureus 29213, CaCl2 [17]: >64 µM; MIC against S. aureus 29213, KCl [17]: >64 µM; MIC against S. aureus 29213, NaCl [17]: >64 µM; antimicrobial activity against the tested microorganisms [19]: failed to show antimicrobial activity; RAW 264.7 cell survival rate [18]: 90%"
C[C@@H]1NC(=O)[C@@H](N)CSSC[C@@H](C(N)=O)NC(=O)[C@H](Cc2ccccc2)NC(=O)[C@H](Cc2ccc(O)cc2)NC(=O)[C@H](CO)NC1=O [Peptide S5] (H-CASYFC-NH2; disulfide 1-6; N-terminus and C-terminus assumed),,,,,,,,,,,,,,,,,,,,,"MIC against S. aureus 29213 (column MIC, no added salt) ([17]; control without added salt, unit not printed in Table 4, μM as in Table 3): >64 µM; antimicrobial activity against the tested microorganisms [19]: failed to show antimicrobial activity"
RWWWRR-NH2 [Peptide S6],32,32,32,32,>64,>64,>64,>64,16,16,8,>64,>64,>64,>64,>64,32,16,4,32,"MIC against S. aureus 29213, CaCl2 [17]: 32 µM; MIC against S. aureus 29213, KCl [17]: 16 µM; MIC against S. aureus 29213, NaCl [17]: 8 µM; RAW 264.7 cell survival rate [18]: 94%"
C[C@@H]1NC(=O)[C@@H](N)CSSC[C@@H](C(=O)N[C@@H](CCCNC(=N)N)C(=O)N[C@@H](Cc2c[nH]c3ccccc23)C(=O)N[C@@H](Cc2c[nH]c3ccccc23)C(=O)N[C@@H](Cc2c[nH]c3ccccc23)C(=O)N[C@@H](CCCNC(=N)N)C(=O)N[C@@H](CCCNC(=N)N)C(N)=O)NC(=O)[C@H](Cc2ccccc2)NC(=O)[C@H](Cc2ccc(O)cc2)NC(=O)[C@H](CO)NC1=O [Peptide S1] (H-CASYFCRWWWRR-NH2; disulfide 1-6; N-terminus assumed),8,8,32,4,64,32,8,>64,4,4,4,>64,>64,>64,>64,>64,8,4,1,4,"MIC against S. aureus 29213, CaCl2 [17]: 8 µM; MIC against S. aureus 29213, KCl [17]: 4 µM; MIC against S. aureus 29213, NaCl [17]: 4 µM; concentrations suppressing growth of tested Gram-negative bacteria ([19]; all tested Gram-negative bacteria except P. aeruginosa 27853): 4 to 64 µM; RAW 264.7 cell survival rate [18]: 86%"
